The record followed here is patent US20260132132A1, “3A,4,5,6-TETRAHYDRO-1 H-PYRAZOLO[3,4-C]PYRIDIN-7(7AH)-ONE DERIVATIVES AS FACTOR XIIA INHIBITORS” (KALVISTA PHARMACEUTICALS LIMITED, priority 2022, published 2026).

One may read the IC50 as the concentration at which inhibition is half-maximal.

The target of the assay is T1, Human Factor XIIa (hFXIIa) (Homo sapiens, UniProt P00748).
T1 construct: purchased Enzyme Research Laboratories
T1 sequence (P00748 373-615 limits assumed): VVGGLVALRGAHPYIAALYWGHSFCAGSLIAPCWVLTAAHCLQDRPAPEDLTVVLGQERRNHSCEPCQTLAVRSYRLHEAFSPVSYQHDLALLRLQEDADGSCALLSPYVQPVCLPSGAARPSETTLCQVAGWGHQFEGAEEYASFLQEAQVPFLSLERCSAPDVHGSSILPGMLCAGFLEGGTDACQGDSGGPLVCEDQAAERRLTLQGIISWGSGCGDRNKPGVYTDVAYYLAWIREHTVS
T1 sequence (P00748 20-372 partner limits assumed): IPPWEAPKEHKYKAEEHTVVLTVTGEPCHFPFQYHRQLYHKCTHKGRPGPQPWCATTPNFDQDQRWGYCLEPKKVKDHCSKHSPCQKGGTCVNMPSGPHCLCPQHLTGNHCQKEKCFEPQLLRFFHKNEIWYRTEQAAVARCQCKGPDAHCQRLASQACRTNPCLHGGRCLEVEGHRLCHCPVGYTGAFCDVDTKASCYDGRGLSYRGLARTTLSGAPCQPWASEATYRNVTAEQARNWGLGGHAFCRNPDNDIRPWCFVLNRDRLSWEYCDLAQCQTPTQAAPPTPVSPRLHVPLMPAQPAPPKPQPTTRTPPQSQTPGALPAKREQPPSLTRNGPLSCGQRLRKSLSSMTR
Put plainly: Determination of Human Factor XIIa (hFXIIa) inhibition, fluorogenic substrate IC50 assay. The following applies: fluorogenic substrate H-DPro-Phe-Arg-AFC at Km, 25° C., read-out: Human FXIIa IC50. It counts as biochemical. How it is done: Determination of Human Factor XIIa (hFXIIa) inhibition
The Km for the cleavage of the substrate by hFXIIa was determined by standard transformation of the Michaelis-Menten equation, with subsequent inhibition assays performed at substrate Km concentration.
Take `CN1CCc2ccc(N3CCc4c(C(=O)NC5CCNC(=O)C5)nn(-c5cccc(Cl)c5)c4C3=O)cc2C1` (stereo not shown) [Example 1057, 1-(3-chlorophenyl)-6-(2-methyl-1,2,3,4-tetrahydroisoquinolin-7-yl)-7-oxo-N-(2-oxopiperidin-4-yl)-4,5,6,7-tetrahydro-1H-pyrazolo[3,4-c]pyridine-3-carboxamide]: the IC50 is 300 to 1000 nM.

As to `CN1CCc2ccc(N3CCc4c(C(=O)NCC(O)C5CC5)nn(-c5cccc(Cl)c5)c4C3=O)cc2C1` (stereo not shown) [Example 1058, 1-(3-chlorophenyl)-N-(2-cyclopropyl-2-hydroxyethyl)-6-(2-methyl-1,2,3,4-tetrahydroisoquinolin-7-yl)-7-oxo-4,5,6,7-tetrahydro-1H-pyrazolo[3,4-c]pyridine-3-carboxamide], the IC50 was 300 to 1000 nM.

Take `CCC(C)N1CCc2ccc(N3CCc4c(C(=O)NCC5CC5)nn(-c5cccc(Cl)c5)c4C3=O)cc2C1` (stereo not shown) [Example 1059, 6-(2-(sec-butyl)-1,2,3,4-tetrahydroisoquinolin-7-yl)-1-(3-chlorophenyl)-N-(cyclopropylmethyl)-7-oxo-4,5,6,7-tetrahydro-1H-pyrazolo[3,4-c]pyridine-3-carboxamide]: the IC50 was 100 to 300 nM.

In the case of `COCC(C)N1CCc2ccc(N3CCc4c(C(=O)NCC5CC5)nn(-c5cccc(Cl)c5)c4C3=O)cc2C1` (stereo not shown) [Example 1060, 1-(3-chlorophenyl)-N-(cyclopropylmethyl)-6-(2-(1-methoxypropan-2-yl)-1,2,3,4-tetrahydroisoquinolin-7-yl)-7-oxo-4,5,6,7-tetrahydro-1H-pyrazolo[3,4-c]pyridine-3-carboxamide], the IC50 lay in the range of 100 to 300 nM.

With `CCOCCN1CCc2ccc(N3CCc4c(C(=O)NCC5CC5)nn(-c5cccc(Cl)c5)c4C3=O)cc2C1` [Example 1061, 1-(3-chlorophenyl)-N-(cyclopropylmethyl)-6-(2-(2-ethoxyethyl)-1,2,3,4-tetrahydroisoquinolin-7-yl)-7-oxo-4,5,6,7-tetrahydro-1H-pyrazolo[3,4-c]pyridine-3-carboxamide], the IC50 lay in the range of 100 to 300 nM.

As for `CN1CCc2ccc(N3CCc4c(C(=O)N[C@@H](CO)c5ccccc5)nn(-c5cccc(Cl)c5)c4C3=O)cc2C1` [Example 1063, (R)-1-(3-chlorophenyl)-N-(2-hydroxy-1-phenylethyl)-6-(2-methyl-1,2,3,4-tetrahydroisoquinolin-7-yl)-7-oxo-4,5,6,7-tetrahydro-1H-pyrazolo[3,4-c]pyridine-3-carboxamide], the IC50 was in the range of 100 to 300 nM.

In the case of `CN1CCc2ccc(N3CCc4c(C(=O)NC5(C)CCOCC5)nn(-c5cccc(Cl)c5)c4C3=O)cc2C1` [Example 1064, 1-(3-chlorophenyl)-6-(2-methyl-1,2,3,4-tetrahydroisoquinolin-7-yl)-N-(4-methyltetrahydro-2H-pyran-4-yl)-7-oxo-4,5,6,7-tetrahydro-1H-pyrazolo[3,4-c]pyridine-3-carboxamide], the IC50 was in the range of 300 to 1000 nM.

Turning to `Cc1cc(CNC(=O)c2nn(-c3cccc(Cl)c3)c3c2CCN(c2ccc4c(c2)CN(C)CC4)C3=O)[nH]n1` [Example 1065, 1-(3-chlorophenyl)-6-(2-methyl-1,2,3,4-tetrahydroisoquinolin-7-yl)-N-((3-methyl-1H-pyrazol-5-yl)methyl)-7-oxo-4,5,6,7-tetrahydro-1H-pyrazolo[3,4-c]pyridine-3-carboxamide], the IC50 lay in the range of 10 to 100 nM.

`COCc1nn(-c2cccc(Cl)c2)c2c1CCN(c1ccc3c(c1)CN(C)CC3)C2=O` [Example 1066, 1-(3-Chlorophenyl)-3-(methoxymethyl)-6-(2-methyl-1,2,3,4-tetrahydroisoquinolin-7-yl)-1,4,5,6-tetrahydro-7H-pyrazolo[3,4-c]pyridin-7-one]: the IC50 lay in the range of 1000 to 3000 nM.

Consider `CN1CCc2ccc(N3CCc4c(C(=O)N5CCOCC5)nn(-c5cccc(Cl)c5)c4C3=O)cc2C1` [Example 1067, 1-(3-chlorophenyl)-6-(2-methyl-1,2,3,4-tetrahydroisoquinolin-7-yl)-3-(morpholine-4-carbonyl)-1,4,5,6-tetrahydro-7H-pyrazolo[3,4-c]pyridin-7-one], for which the IC50 was 1000 to 3000 nM.

For the molecule `CN1CCc2ccc(N3CCc4c(C(=O)NCc5ccoc5)nn(-c5cccc(Cl)c5)c4C3=O)cc2C1` [Example 1068, 1-(3-chlorophenyl)-N-(furan-3-ylmethyl)-6-(2-methyl-1,2,3,4-tetrahydroisoquinolin-7-yl)-7-oxo-4,5,6,7-tetrahydro-1H-pyrazolo[3,4-c]pyridine-3-carboxamide], the IC50 lay within 100 to 300 nM.

On to `COCc1nn(-c2cccc(Cl)c2)c2c1CCN(c1ccc3c(c1)CN(CCO)CC3)C2=O` [Example 1069, 1-(3-chlorophenyl)-6-(2-(2-hydroxyethyl)-1,2,3,4-tetrahydroisoquinolin-7-yl)-3-(methoxymethyl)-1,4,5,6-tetrahydro-7H-pyrazolo[3,4-c]pyridin-7-one], for which the IC50 was in the range of 300 to 1000 nM.

Turning to `C[C@H](O)CN1CCc2ccc(N3CCc4c(C(=O)NCC5CC5)nn(-c5cccc(Cl)c5)c4C3=O)cc2C1` [Example 1070, (S)-1-(3-chlorophenyl)-N-(cyclopropylmethyl)-6-(2-(2-hydroxypropyl)-1,2,3,4-tetrahydroisoquinolin-7-yl)-7-oxo-4,5,6,7-tetrahydro-1H-pyrazolo[3,4-c]pyridine-3-carboxamide], the IC50 was in the range of 100 to 300 nM.

Consider `O=C(NCC1CC1)c1nn(-c2cccc(Cl)c2)c2c1CCN(c1ccc3c(c1)CN(CC(F)(F)F)CC3)C2=O` [Example 1071, 1-(3-chlorophenyl)-N-(cyclopropylmethyl)-7-oxo-6-(2-(2,2,2-trifluoroethyl)-1,2,3,4-tetrahydroisoquinolin-7-yl)-4,5,6,7-tetrahydro-1H-pyrazolo[3,4-c]pyridine-3-carboxamide], for which the IC50 was in the range of 1000 to 3000 nM.

Take `O=C(NCC1CC1)c1nn(-c2cccc(Cl)c2)c2c1CCN(c1cccc(CN3CCCC3)c1)C2=O` [Example 1072, 1-(3-Chlorophenyl)-N-(cyclopropylmethyl)-7-oxo-6-(3-(pyrrolidin-1-ylmethyl)phenyl)-4,5,6,7-tetrahydro-1H-pyrazolo[3,4-c]pyridine-3-carboxamide]: the IC50 fell in the range of 1000 to 3000 nM.

For the molecule `O=C(NCC1CC1)c1nn(-c2cccc(Cl)c2)c2c1CCN(c1cccc(CN3CC4CC4C3)c1)C2=O` (stereo not shown) [Example 1073, 6-(3-((3-azabicyclo[3.1.0]hexan-3-yl)methyl)phenyl)-1-(3-chlorophenyl)-N-(cyclopropylmethyl)-7-oxo-4,5,6,7-tetrahydro-1H-pyrazolo[3,4-c]pyridine-3-carboxamide], the IC50 was in the range of 1000 to 3000 nM.

As to `CN1CCc2ccc(N3CCc4c(C(=O)NC5CC6CCC5O6)nn(-c5cccc(Cl)c5)c4C3=O)cc2C1` (stereo not shown) [Example 1075, N-(7-oxabicyclo[2.2.1]heptan-2-yl)-1-(3-chlorophenyl)-6-(2-methyl-1,2,3,4-tetrahydroisoquinolin-7-yl)-7-oxo-4,5,6,7-tetrahydro-1H-pyrazolo[3,4-c]pyridine-3-carboxamide], the IC50 lay in the range of 100 to 300 nM.

As for `O=C(NCC1CC1)c1nn(-c2cccc(Cl)c2)c2c1CCN(c1ccc3c(c1)CN(CCCF)CC3)C2=O` [Example 1080, 1-(3-chlorophenyl)-N-(cyclopropylmethyl)-6-(2-(3-fluoropropyl)-1,2,3,4-tetrahydroisoquinolin-7-yl)-7-oxo-4,5,6,7-tetrahydro-1H-pyrazolo[3,4-c]pyridine-3-carboxamide], the IC50 lay within 100 to 300 nM.

Take `CC(=O)NCCN1CCc2ccc(N3CCc4c(C(=O)NCC5CC5)nn(-c5cccc(Cl)c5)c4C3=O)cc2C1` [Example 1081, 6-(2-(2-acetamidoethyl)-1,2,3,4-tetrahydroisoquinolin-7-yl)-1-(3-chlorophenyl)-N-(cyclopropylmethyl)-7-oxo-4,5,6,7-tetrahydro-1H-pyrazolo[3,4-c]pyridine-3-carboxamide]: the IC50 was in the range of 300 to 1000 nM.

With `CCN1Cc2cc(N3CCc4c(C(=O)NCC5CC5)nn(-c5cccc(Cl)c5)c4C3=O)ccc2C(C)(C)C1` [Example 1082, 1-(3-chlorophenyl)-N-(cyclopropylmethyl)-6-(2-ethyl-4,4-dimethyl-1,2,3,4-tetrahydroisoquinolin-7-yl)-7-oxo-4,5,6,7-tetrahydro-1H-pyrazolo[3,4-c]pyridine-3-carboxamide], the IC50 was 300 to 1000 nM.

`CS(=O)(=O)NCCN1CCc2ccc(N3CCc4c(C(=O)NCC5CC5)nn(-c5cccc(Cl)c5)c4C3=O)cc2C1` [Example 1083, 1-(3-chlorophenyl)-N-(cyclopropylmethyl)-6-(2-(2-(methylsulfonamido)ethyl)-1,2,3,4-tetrahydroisoquinolin-7-yl)-7-oxo-4,5,6,7-tetrahydro-1H-pyrazolo[3,4-c]pyridine-3-carboxamide]: the IC50 lay in the range of 100 to 300 nM.

On to `CNC(=O)NCCN1CCc2ccc(N3CCc4c(C(=O)NCC5CC5)nn(-c5cccc(Cl)c5)c4C3=O)cc2C1` [Example 1084, 1-(3-chlorophenyl)-N-(cyclopropylmethyl)-6-(2-(2-(3-methylureido)ethyl)-1,2,3,4-tetrahydroisoquinolin-7-yl)-7-oxo-4,5,6,7-tetrahydro-1H-pyrazolo[3,4-c]pyridine-3-carboxamide], for which the IC50 lay in the range of 100 to 300 nM.
